pIC50: −log10 of the molar value.
Biological target: bacterial protein synthesis (S30 extract from quinolone-succeptable Streptococcus pneumoniae ATCC 46919)
Test: Translation assay, firefly luciferase reporter system with S30 Streptococcus pneumoniae extract
Format: biochemical
Conditions: luciferase mRNA, read-out: IC50, concentration causing 50% inhibition of bacterial protein synthesis
Description: Bacterial protein synthesis inhibitory activity of representative compounds of this invention having formula (I) and the commercially-available antibacterials in TABLE 2 was determined by translation assays using the firefly luciferase reporter system described by Murray et al., (2001), “Staphylococcus aureus Cell Extract Transcription-Translation Assay: Firefly Luciferase Reporter System for Evaluating Protein Translation Inhibitors,” Antimicrob. Agents Chemother. 45(6): 1900-1904, but replacing the Staphylococcus aureus S30 extract described therein with S30 Streptococcus pneumoniae extract from quinolone-succeptable Streptococcus pneumoniae ATCC 46919, and replacing plasmid coding for the luciferase gene with mRNA (encoding produced by in vitro transcription from the plasmid pAS10rbs3) which encoded the luciferase gene with an upstream Streptococcus pneumoniae promoter and Shine-Dalgarno site.

`CC(=O)NC[C@H]1CN(c2ccc(N3CCOCC3)c(F)c2)C(=O)O1` [Linezolid] showed a pIC50 of ~5.52.

Source: patent publication US7737159B2, “Antibacterial compounds” (Abbott Laboratories, priority 2004, dated 2010)
